In a melting point compilation (Tetko et al.; mined from patent text by program, amines drawn as free bases though some values may be those of a salt):

Row | SMILES | melting point [°C]
1 | O=c1[nH]c2ccccc2n1CCCN1CC=C(n2c(=O)[nH]c3ccccc32)CC1 | 207
2 | c1ccc2c(c1)[nH]c1c2ccc2cc[nH]c21 | 295
3 | Cc1cc2cc(CN3CCC(CC(=O)N4CCCCC4)CC3)cnc2cc1NC(=O)c1ccc(-c2ccc(F)cc2)cc1 | 216
4 | CCOC(=O)C(C)c1ccc2c(c1)C(=O)c1ccccc1CS2 (stereo not drawn) | 91 to 93
5 | COC(=O)c1cccc(C)c1N | 27 to 29
6 | CNC(=O)Cn1c(-c2ccc([N+](=O)[O-])cc2)nc2cccnc21 | > 260
7 | COc1ccc(S(=O)(=O)Nc2cc(C)c(S(=O)(=O)C[N+](=O)[O-])c(C)c2)cc1 | 141 to 142
8 | CN(C)c1ccc(C2OC(C)(C)N=C2c2cccc(Cl)c2)cc1 (stereo not drawn) | 96 to 97
9 | Cc1c(Cl)nn2cc(-c3ccc(F)cc3)nc2c1C | 172 to 174
10 | COCC1(C)OC(=O)N(c2cc(Cl)cc(Cl)c2)C1=O (stereo not drawn) | 108 to 111
11 | Cc1oc(-c2ccccc2)nc1COc1ccc(Cn2cc(C=O)c(-c3ccccc3)c2)cc1 | 117 to 118
12 | CC(Oc1ccc(-n2cnc3cc(C(F)(F)F)ccc32)cc1)C(=O)O (stereo not drawn) | 181 to 182
13 | COc1ccccc1COc1ccc(S(=O)(=O)c2ccc(C)nc2Nc2cc(OC)c(OC)cc2Cl)cc1 | 149 to 151
14 | CCC(C)(C)c1ccc(Oc2cccc(C#N)c2C#N)c(C(C)(C)CC)c1 | 143 to 144
15 | CCC(C)(C)Nc1c(NCc2ccc(F)cc2Cl)c(=O)c1=O | 201 to 203
16 | COc1ccc(CNC(=O)c2cc3c(=O)n(C[C@H]4CC[C@H](C(=O)O)CC4)cnc3cn2)cc1 | 232 to 233
17 | O=C(NCC1CCN(CC2(C(=O)O)CC2)CC1)N1C(=O)C2(CCCC2)c2ccccc21 | 186
18 | Cc1ccc(OCC2CN(C(C)C)C(=O)O2)cn1 (stereo not drawn) | 86 to 88
19 | COC(=O)c1cc(OCCCN2CCN(c3cccc4sccc34)CC2)n(C)n1 | 109 to 110

Row | SMILES | melting point [°C]
20 | CCn1c2ccccc2c2cc(NC(=S)NNC(C)=O)ccc21 | 197 to 199
21 | CC(C)(C)OC(=O)CC[C@H](NC(=O)c1ccc(NCc2ccccc2)c(F)c1)C(=O)OC(C)(C)C | 80 to 82
22 | CCOC(=O)C(=CNc1cccc(C2=NC(C)(C)Cc3cc(OC)c4c(c32)CC(C)(C)O4)c1)C(=O)OCC | 115 to 117
23 | NC(=O)c1ncn2c1[C@@H]1CCN1C(=O)c1cc(F)ccc1-2 | 223 to 224
24 | Cc1ccc(C2(CCC(=O)O)NC(=O)NC2=O)cc1Cl (stereo not drawn) | 196 to 199
25 | O=C1Nc2cc(C(F)(F)F)cc(C(F)(F)F)c2C1=O | 200 to 203
26 | COC(=O)/C=C/n1cnc2ccc(C3CC3)cc2c1=O | 178
27 | O=S(=O)(c1ccc(Cl)cc1)C(c1cc(F)ccc1F)c1cc(Cl)ncc1Cl (stereo not drawn) | 147 to 148
28 | CC(=O)OC(CCc1cc2cccnc2n(-c2cccc([N+](=O)[O-])c2)c1=O)c1ccncc1 (stereo not drawn) | 69 to 71
29 | CC(C)(C)[Si](C)(C)Oc1ccc2c(ccc3c4ccc(O[Si](C)(C)C(C)(C)C)cc4oc(=O)c23)c1 | 154 to 156
30 | CC1C=CC(Oc2ccc(C(=O)O)o2)=C2N=C3CCCCC3=C21 (stereo not drawn) | 150 to 152
31 | CCN(CC)CCNS(=O)(=O)c1ccc(Nc2cnnc3cc(Cl)ccc23)cc1 | 175 to 176
32 | CC1Cc2c(N3CCN(C)CC3)c(F)c(N)c3c(=O)c(C(=O)O)cn1c23 (stereo not drawn) | 240 to 243
33 | FC(F)(F)c1cc(Cl)c(-n2cc(C3CC3(Br)Br)nn2)c(Cl)c1 (stereo not drawn) | 156 to 158
34 | c1ccc(Nc2nc(NC3CCC3)c3[nH]cnc3n2)cc1 | 312 to 314
35 | CC(C)CCCC(C)C1CCC2C3CC=C4CC(I)CCC4(C)C3CCC12C (stereo not drawn) | 106
36 | COc1ccc(OC)c(C2(Cl)C(=O)Nc3ccc(Cl)cc32)c1 (stereo not drawn) | 157
37 | CC(=O)c1ccc2cc(N3CCNCC3)ccc2c1 | 170 to 172
38 | O=C1CN[C@@H](c2ccccc2)[C@@H](c2ccccc2)O1 | 139
